pIC50: −log10 of the molar value. Where two headings read alike, the source gives them in different places.
Legend:
[1] = target: panel of 255 wild-type kinases (Homo sapiens, UniProt Q15119); details: kinase PDHK2; 1 µmol/L single concentration; ref DOI: 10.1371/journal.pone.0092146; cited from earlier work
[2] = target: T1, panel of 255 wild-type kinases (Homo sapiens, UniProt O15264); details: p38δ; 1 µmol/L single concentration; ref DOI: 10.1371/journal.pone.0092146; cited from earlier work
T1 sequence (O15264 1-365): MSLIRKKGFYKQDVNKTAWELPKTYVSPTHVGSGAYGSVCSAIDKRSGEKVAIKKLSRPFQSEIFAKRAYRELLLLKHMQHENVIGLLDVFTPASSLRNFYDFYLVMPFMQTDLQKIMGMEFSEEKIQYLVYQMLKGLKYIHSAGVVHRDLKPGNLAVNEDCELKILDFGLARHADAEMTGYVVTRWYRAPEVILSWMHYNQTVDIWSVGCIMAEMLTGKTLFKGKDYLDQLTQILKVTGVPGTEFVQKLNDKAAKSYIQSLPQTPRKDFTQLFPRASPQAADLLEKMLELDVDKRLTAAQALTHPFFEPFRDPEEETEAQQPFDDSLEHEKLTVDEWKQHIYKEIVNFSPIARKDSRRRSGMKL

[3] = target: panel of 255 wild-type kinases (Homo sapiens, UniProt Q9P286); details: PAK5; 1 µmol/L single concentration; ref DOI: 10.1371/journal.pone.0092146; cited from earlier work
[4] = target: panel of 255 wild-type kinases (Homo sapiens, UniProt Q9UBS0); details: p70S6Kβ; 1 µmol/L single concentration; ref DOI: 10.1371/journal.pone.0092146; cited from earlier work
134 cancer cell lines [5] = system: 134 cancer cell lines
134 cancer cell lines [6] = experiment: Cell viability assay (ATPlite, 72 hours), IC50 on cancer cell line panel

CC(C)(C)c1nc(-c2cccc(NS(=O)(=O)c3c(F)cccc3F)c2F)c(-c2ccnc(N)n2)s1 [dabrafenib]
%-inhibition at 1 µmol/L, PDHK2 [1]: 0.108%
%-inhibition, p38δ [2]: -3.43%
%-inhibition, PAK5 [3]: 21%
%-inhibition, p70S6Kβ [4]: -0.554%
pIC50 (134 cancer cell lines [5]): 5.97
pIC50 (134 cancer cell lines [6]; HEC-6, read-out: IC50 in cell proliferation assay, HEC-6 cell line (EGFR p.A289V)): < 5.00
pIC50 (134 cancer cell lines [6]; Homo sapiens, 769-P, read-out: IC50 in cell proliferation assay, cell line 769-P): 5.98
pIC50 (134 cancer cell lines [6]; Homo sapiens, 786-0, read-out: IC50 in cell proliferation assay, cell line 786-O): 5.77
pIC50 (134 cancer cell lines [6]; Homo sapiens, A 172, read-out: IC50 in cell proliferation assay, cell line A-172): < 5.00
pIC50 (134 cancer cell lines [6]; Homo sapiens, A204, read-out: IC50 in cell proliferation assay, cell line A-204): 5.70
pIC50 (134 cancer cell lines [6]; Homo sapiens, A498, read-out: IC50 in cell proliferation assay, cell line A-498): 6.12
pIC50 (134 cancer cell lines [6]; Homo sapiens, A549, read-out: IC50 in cell proliferation assay, cell line A-549): 5.58
pIC50 (134 cancer cell lines [6]; Homo sapiens, A704, read-out: IC50 in cell proliferation assay, cell line A-704): 6.09
pIC50 (134 cancer cell lines [6]; Homo sapiens, A-375, read-out: IC50 in cell proliferation assay, cell line A-375 (BRAF p.V600E)): 7.15
pIC50 (134 cancer cell lines [6]; Homo sapiens, A-427, read-out: IC50 in cell proliferation assay, cell line A-427): 5.65
pIC50 (134 cancer cell lines [6]; Homo sapiens, ACHN, read-out: IC50 in cell proliferation assay, cell line ACHN): 6.22
pIC50 (134 cancer cell lines [6]; Homo sapiens, AN3-CA, read-out: IC50 in cell proliferation assay, cell line AN3-CA (FGFR2 p.N549K)): 5.58
pIC50 (134 cancer cell lines [6]; Homo sapiens, ASPC1, read-out: IC50 in cell proliferation assay, cell line AsPC-1): < 5.00
pIC50 (134 cancer cell lines [6]; Homo sapiens, AU565, read-out: IC50 in cell proliferation assay, cell line AU565 (ERBB2 amplification)): 6.01
pIC50 (134 cancer cell lines [6]; Homo sapiens, BT-20, read-out: IC50 in cell proliferation assay, cell line BT-20): < 5.00
pIC50 (134 cancer cell lines [6]; Homo sapiens, BT-474, read-out: IC50 in cell proliferation assay, cell line BT-474 (ERBB2 amplification)): < 5.00
pIC50 (134 cancer cell lines [6]; Homo sapiens, BT-549, read-out: IC50 in cell proliferation assay, cell line BT-549): 5.82
pIC50 (134 cancer cell lines [6]; Homo sapiens, BXPC-3, read-out: IC50 in cell proliferation assay, cell line BxPC-3): 6.17
pIC50 (134 cancer cell lines [6]; Homo sapiens, C-33-A, read-out: IC50 in cell proliferation assay, cell line C-33 A): < 5.00
pIC50 (134 cancer cell lines [6]; Homo sapiens, CAL-27, read-out: IC50 in cell proliferation assay, cell line CAL-27): < 5.00
pIC50 (134 cancer cell lines [6]; Homo sapiens, CCF-STTG1, read-out: IC50 in cell proliferation assay, cell line CCF-STTG1): < 5.00
pIC50 (134 cancer cell lines [6]; Homo sapiens, CCRF-CEM, read-out: IC50 in cell proliferation assay, cell line CCRF-CEM): 5.80
pIC50 (134 cancer cell lines [6]; Homo sapiens, COLO 205, read-out: IC50 in cell proliferation assay, cell line COLO 205 (BRAF p.V600E)): 7.77
pIC50 (134 cancer cell lines [6]; Homo sapiens, COLO-829, read-out: IC50 in cell proliferation assay, cell line COLO 829 (BRAF p.V600E)): 7.36
pIC50 (134 cancer cell lines [6]; Homo sapiens, DLD-1, read-out: IC50 in cell proliferation assay, cell line DLD-1): 5.97
pIC50 (134 cancer cell lines [6]; Homo sapiens, DU-4475, read-out: IC50 in cell proliferation assay, cell line DU4475 (BRAF p.V600E)): 7.26
pIC50 (134 cancer cell lines [6]; Homo sapiens, Daoy, read-out: IC50 in cell proliferation assay, cell line Daoy): 6.04
pIC50 (134 cancer cell lines [6]; Homo sapiens, DoTc2-4510, read-out: IC50 in cell proliferation assay, cell line DoTc2 4510): < 5.00
pIC50 (134 cancer cell lines [6]; Homo sapiens, EOL1, read-out: IC50 in cell proliferation assay, cell line EoL-1 (FIP1L1-PDGFRA)): 5.57
pIC50 (134 cancer cell lines [6]; Homo sapiens, FaDu, read-out: IC50 in cell proliferation assay, cell line FaDu): 5.58
pIC50 (134 cancer cell lines [6]; Homo sapiens, G-361, read-out: IC50 in cell proliferation assay, cell line G-361 (BRAF p.V600E)): 7.33
pIC50 (134 cancer cell lines [6]; Homo sapiens, HCC827, read-out: IC50 in cell proliferation assay, cell line HCC827 (EGFR exon19del)): 5.90
pIC50 (134 cancer cell lines [6]; Homo sapiens, HCC4006, read-out: IC50 in cell proliferation assay, cell line HCC4006 (EGFR exon19del)): < 5.00
pIC50 (134 cancer cell lines [6]; Homo sapiens, HCT-15, read-out: IC50 in cell proliferation assay, cell line HCT 15): 5.82
pIC50 (134 cancer cell lines [6]; Homo sapiens, HCT-116, read-out: IC50 in cell proliferation assay, cell line HCT 116): 5.95
pIC50 (134 cancer cell lines [6]; Homo sapiens, HEC-1, read-out: IC50 in cell proliferation assay, HEC-1 cell line): 5.90
pIC50 (134 cancer cell lines [6]; Homo sapiens, HEC-1B, read-out: IC50 in cell proliferation assay, HEC-1-B cell line (EGFR p.A864V)): < 5.00
pIC50 (134 cancer cell lines [6]; Homo sapiens, HL-60, read-out: IC50 in cell proliferation assay, HL-60 cell line): < 5.00
pIC50 (134 cancer cell lines [6]; Homo sapiens, HT, read-out: IC50 in cell proliferation assay, HT cell line): < 5.00
pIC50 (134 cancer cell lines [6]; Homo sapiens, HT-1080, read-out: IC50 in cell proliferation assay, HT-1080 cell line): 6.01
pIC50 (134 cancer cell lines [6]; Homo sapiens, Hs746T, read-out: IC50 in cell proliferation assay, Hs 746.T cell line (MET exon14skip + amplification)): < 5.00
pIC50 (134 cancer cell lines [6]; Homo sapiens, Hs-578T, read-out: IC50 in cell proliferation assay, Hs 578T cell line): 5.95
pIC50 (134 cancer cell lines [6]; Homo sapiens, HuTu80, read-out: IC50 in cell proliferation assay, HuTu 80 cell line): 5.52
pIC50 (134 cancer cell lines [6]; Homo sapiens, J82, read-out: IC50 in cell proliferation assay, J82 cell line): < 5.00
pIC50 (134 cancer cell lines [6]; Homo sapiens, Jurkat E6.1, read-out: IC50 in cell proliferation assay, Jurkat E6.1 cell line): 5.89
pIC50 (134 cancer cell lines [6]; Homo sapiens, K562, read-out: IC50 in cell proliferation assay, K-562 cell line): < 5.00
pIC50 (134 cancer cell lines [6]; Homo sapiens, KATO III, read-out: IC50 in cell proliferation assay, KATO III cell line (FGFR2 amplification)): 5.75
pIC50 (134 cancer cell lines [6]; Homo sapiens, KG-1, read-out: IC50 in cell proliferation assay, KG-1 cell line (FGFR1OP2-FGFR1)): 5.92
pIC50 (134 cancer cell lines [6]; Homo sapiens, KLE, read-out: IC50 in cell proliferation assay, KLE cell line): 5.81
pIC50 (134 cancer cell lines [6]; Homo sapiens, KMS-11, read-out: IC50 in cell proliferation assay, KMS-11 cell line (FGFR3 p.Y373C)): < 5.00
pIC50 (134 cancer cell lines [6]; Homo sapiens, KU812, read-out: IC50 in cell proliferation assay, Ku812 cell line): 5.06
pIC50 (134 cancer cell lines [6]; Homo sapiens, Kasumi 1, read-out: IC50 in cell proliferation assay, Kasumi-1 cell line (KIT p.N822K)): 5.04
pIC50 (134 cancer cell lines [6]; Homo sapiens, LC-2-ad, read-out: IC50 in cell proliferation assay, LC-2/ad cell line (CCDC6-RET)): 5.68
pIC50 (134 cancer cell lines [6]; Homo sapiens, LNCaP-Clone-FGC, read-out: IC50 in cell proliferation assay, LNCaP clone FGC cell line): 5.56
pIC50 (134 cancer cell lines [6]; Homo sapiens, LS174T, read-out: IC50 in cell proliferation assay, LS174T cell line): < 5.00
pIC50 (134 cancer cell lines [6]; Homo sapiens, LS-411N, read-out: IC50 in cell proliferation assay, LS411N cell line (BRAF p.V600E)): 7.66
pIC50 (134 cancer cell lines [6]; Homo sapiens, LoVo, read-out: IC50 in cell proliferation assay, LoVo cell line): 5.36
pIC50 (134 cancer cell lines [6]; Homo sapiens, MCF7, read-out: IC50 in cell proliferation assay, MCF-7 cell line): < 5.00
pIC50 (134 cancer cell lines [6]; Homo sapiens, MDA-MB-231, read-out: IC50 in cell proliferation assay, MDA-MB-231 cell line): < 5.00
pIC50 (134 cancer cell lines [6]; Homo sapiens, MDA-MB-453, read-out: IC50 in cell proliferation assay, MDA-MB-453 cell line): < 5.00
pIC50 (134 cancer cell lines [6]; Homo sapiens, MDA-MB-468, read-out: IC50 in cell proliferation assay, MDA-MB-468 cell line): < 5.00
pIC50 (134 cancer cell lines [6]; Homo sapiens, MG-63, read-out: IC50 in cell proliferation assay, MG-63 cell line): < 5.00
pIC50 (134 cancer cell lines [6]; Homo sapiens, MIA PaCa-2, read-out: IC50 in cell proliferation assay, MIA PaCa-2 cell line): < 5.00
pIC50 (134 cancer cell lines [6]; Homo sapiens, MKN-45, read-out: IC50 in cell proliferation assay, MKN45 cell line (MET amplification)): < 5.00

From paper PMC9516332 (Frontiers in Oncology, 2022)
